Test results published in US9290764B2, “RNAi for the control of insects and arachnids” (Devgen NV, priority 2005, dated 2016).

Test system: German cockroach, Blattella germanica
Assay: Cockroach laboratory trial of Bg001 dsRNA and Bg001 concatemer 2 (mortality and moulting to adult)
Assay type: in vivo
Conditions: for number of cockroaches successfully moulting to the adult stage, as a percentage of live insects (means±standard errors, n=4): pellets 1% w/w
Protocol: Table 3: Effect of dsRNA treatments on the number of cockroaches successfully moulting to the adult stage, as a percentage of live insects (means±standard errors, n=4)
FIG. 2: Mortality of B. germanica on artificial pellet diet. The concentration of dsRNA (Bg001, having the sequence as represented as SEQ ID NO 9, and Bg001 concatemer 2, having the sequence as represented as SEQ ID NO 68) in the pellets was 1% w/w. In this experiment, hexaflumuron (1% w/w) was tested as a positive control and solvent as a negative control.
Stock solutions of 1-10 μg/μl dsRNA in distilled water were prepared. Each dsRNA solution was diluted to the appropriate concentration and mixed with finely ground laboratory diet (Rat and mouse standard diet, B&K Universal Ltd, Hull, UK), which was previously heat treated in order to inactivate any enzymes. The mixture or formulation was formed into small pellets of equal weight (0.3 g) to achieve an end concentration of 0.1% to 2% w/w dsRNA and dried overnight at room temperature.
Newly hatched nymphs from the German cockroach, B. germanica were housed per 10 in plastic lidded containers (29±2° C., minimum 40% relative humidity, with a 12:12 light:dark photoperiod). Animals were starved 24 hours prior to exposure to the pellets. The cockroaches were assessed as live, moribund or dead twice a week until adulthood. The pellet was replaced with freshly prepared pellet once a week. dsRNA containing pellets, formulations, were compared with a negative control (solvent) and a positive control (1 or 2% imidacloprid, commonly used in commercially available cockroach baits).
Concatemers were designed for each target gene. Concatemers are synthetic tandem repeats of 50 to 100 bp dsfragments. In the present example, concatemers were designed by selecting the best possible fragments in regions with homology in protein family as well as at nucleotide level, in regions containing the best predicted siRNAs and in regions with between 40 and 60% GC content, preferably about 50% GC content, if possible.
For Bg001 two concatemers were designed consisting of a five times repeat of a 50 bp fragment, ie represented by SEQ ID NO 65 and 66, resulting in Bg001 concatemer 1 and Bg001 concatemer 2, herein represented respectively as SEQ ID NO 67 and SEQ ID NO 68, and one concatemer was designed consisting of a three times repeat of a 100 bp repeat, ie represented by SEQ ID NO 69, resulting in Bg001 concatemer 3, herein represented as SEQ ID NO 70. XbaI and SmaI flanking sites were added for cloning in a vector to produce dsRNA. These dsRNA constructs comprising the concatemers were tested in the cockroach laboratory trials.
For example at day 48, from the surviving cockroaches treated with Bg001 only 33.3 moulted to the adult stage whereas none of the cockroaches treated with Bg001 concatemer 2 did within this time as shown in Table 3.

Row | Molecule | number of cockroaches successfully moulting to the adult stage, as a percentage of live insects (means±standard errors, n=4) (Day 38) | number of cockroaches successfully moulting to the adult stage, as a percentage of live insects (means±standard errors, n=4) (Day 41) | number of cockroaches successfully moulting to the adult stage, as a percentage of live insects (means±standard errors, n=4) (Day 45) | number of cockroaches successfully moulting to the adult stage, as a percentage of live insects (means±standard errors, n=4) (Day 48) | number of cockroaches successfully moulting to the adult stage, as a percentage of live insects (means±standard errors, n=4) (Day 52) | mortality compared to the negative control (solvent) (artificial pellet diet, dsRNA 1% w/w (FIG. 2))
1 | O=C(NC(=O)c1c(F)cccc1F)Nc1cc(Cl)c(OC(F)(F)C(F)F)c(Cl)c1 [Positive control, hexaflumuron] | 0.0 (±0.0) % | 0.0 (±0.0) % | 0.0 (±0.0) % | 0.0 (±0.0) % | 0.0 (±0.0) % | 
2 | Bg001 concatemer 2: dsRNA concatemer, five times repeat of a 50 bp Bg001 fragment (SEQ ID NO 66) (nucleic acid, Concatemer) DNA: CTTGGGTCGTGTTGGAACTGTAGTTAATCGAGAACGTCATCCTGGTTCCTCTTGGGTCGTGTTGGAACTGTAGTTAATCGAGAACGTCATCCTGGTTCCTCTTGGGTCGTGTTGGAACTGTAGTTAATCGAGAACGTCATCCTGGTTCCTCTTGGGTCGTGTTGGAACTGTAGTTAATCGAGAACGTCATCCTGGTTCCTCTTGGGTCGTGTTGGAACTGTAGTTAATCGAGAACGTCATCCTGGTTCCT | 0.0 (±0.0) % | 0.0 (±0.0) % | 0.0 (±0.0) % |  | 0.0 (±0.0) % | significant higher
